{"source": "patent US7892767B2", "about": "“Phosphospecific chemokine receptor antibodies” (Washington University in St. Louis, priority 2005, dated 2011)", "key": {"Nf1−/− astrocytes": {"tested_on": "Nf1−/− astrocytes", "assay": "Intracellular cAMP by ELISA, Nf1−/− astrocytes", "type": "cell-based, mouse", "description": "cAMP measurements. cAMP was measured by ELISA (Cayman Chemical Company, Ann Arbor, Mich. or Assay Designs, Ann Arbor, Mich.). Briefly, astrocyte cultures were lysed in 0.1 N HCl. After the removal of cellular debris, soluble cellular extract was dried down and resuspended in EIA buffer. Experimental samples and cAMP standard curve were acetylated to increase the sensitivity of the assay and incubated with cAMP ACHe tracer and cAMP EIA anti-serum overnight at 4° C. according to the manufacturer's instructions. After extensive washing, bound antibody was measured by spectrophotometric analysis. Concentrations of cAMP were derived from comparison with standard curve according to manufacturer's instructions.\nWe evaluated the time dependent changes in intracellular cAMP in Nf1+/+ and Nf1−/− astrocytes after exposure to 0.1 μg/ml CXCL12. […] However, in Nf1+/+ astrocytes, intracellular levels of cAMP rapidly recovered to baseline and oscillated between baseline and 40% of baseline over the 45-minute experimental period (FIG. 10B).\nWe hypothesized that if cooperative signaling between Nf1 loss and CXCR4 activation promotes tumor formation through the suppression of cAMP, then agents that alter intracellular cAMP should modulate CXCL12 responses. We treated astrocytes with the adenylyl cyclase (AC) activator forskolin in the presence and absence of CXCL12. […] In these experiments, forskolin elevated intracellular cAMP levels in both Nf1+/+ and Nf1−/− astrocytes with peak values of 17.8+/−0.4 and 19.4+/−4.5 pmol/mg of protein, respectively, after 24 hours of treatment. The effect of forskolin was not abrogated by co-treatment with CXCL12. Under these conditions, cAMP levels were 17.9+/−2.5 and 10.4+/−5.8 pmol/mg of total protein in Nf1+/+ and Nf1−/− astrocytes, respectively. […] The effect of forskolin on CXCL12-mediated Nf1−/− apoptosis was evidenced by changes in the percentage of Nf1−/− astrocytes in the sub-G0 fraction of the cell cycle (FIG. 11B). Thus while astrocyte growth is dependent upon MEK and PI3 kinase activity, CXCL12-induced Nf1−/− astrocyte growth requires the suppression of intracellular cAMP levels."}, "U87 glioblastoma cells": {"tested_on": "U87 glioblastoma cells", "assay": "Intracellular cAMP by ELISA, U87 glioblastoma cells", "type": "cell-based, human", "details": "1 μg/ml CXCL12", "description": "Growth factor and drug treatment. Following serum-starvation for 24 hours, astrocytes, granule cells, U87 cells and Daoy cells, were treated with 1 μg/ml CXCL12 (PeproTech), […] AMD3465 (kind gift from Simon Fricker, AnorMED, Langley, BC, Canada) (200 μM Rolipram (Sigma), or 10 μM Forskolin (Sigma) as indicated.\ncAMP measurement in cell culture. cAMP concentration was measured using a Correlated-EIA™. Enzyme Immunoassay Kit (Assay Designs Inc. MI) according to the manufacturer's instructions. Briefly, U87 or Daoy cells were serum-starved for 24 hours, and treated with CXCL12 (1 μg/ml), Rolipram (200 μM), or forskolin (10 μM). Cells were lysed in 0.1M HCL and particulate matter was removed by centrifugation at >600×g for 10 min. The supernatants were dried down and resuspended in assay buffer.\nDetermination of cAMP concentration. Competitive immunoassay for cAMP concentration was performed exactly as directed by the manufacturer. Absorbance at 405 nm was measured and cAMP concentrations were determined by calculation based on a standard curve. Protein concentrations were measured by colormetric assay (Bio-Rad, Hercules, Calif.) according to the manufacturer's directions. cAMP values were normalized to protein for each sample individually."}}}
{"substance": "CXCL12: chemokine ligand of CXCR4 (Peprotech)", "values": [{"measurement": "integrated area under the cAMP curve", "setting": "Nf1−/− astrocytes; 0.1 μg/ml CXCL12, 45-minute period", "value": 1.96}, {"measurement": "intracellular cAMP in Nf1−/− astrocytes relative to Nf1+/+ astrocytes", "setting": "Nf1−/− astrocytes; 0.1 μg/ml CXCL12, from areas under the curves", "value": "approximately 73%"}, {"measurement": "cyclic AMP levels after CXCL12", "setting": "U87 glioblastoma cells", "value": "rapidly declined"}, {"measurement": "reduction in intracellular cAMP as compared to astrocytes (area under the curve)", "setting": "U87 glioblastoma cells", "value": 45, "unit": "%"}]}
